In data set [1] the target is T1, rabbit reticulocyte 15-LO (Oryctolagus cuniculus, UniProt P12530).
T1 construct: 15-LO is obtained from phenylhydrazine-treated rabbits and purified according to the method of Rapoport; from tissue; host or cells: reticulocytes of phenylhydrazine-treated rabbits
T1 sequence (P12530 1-663): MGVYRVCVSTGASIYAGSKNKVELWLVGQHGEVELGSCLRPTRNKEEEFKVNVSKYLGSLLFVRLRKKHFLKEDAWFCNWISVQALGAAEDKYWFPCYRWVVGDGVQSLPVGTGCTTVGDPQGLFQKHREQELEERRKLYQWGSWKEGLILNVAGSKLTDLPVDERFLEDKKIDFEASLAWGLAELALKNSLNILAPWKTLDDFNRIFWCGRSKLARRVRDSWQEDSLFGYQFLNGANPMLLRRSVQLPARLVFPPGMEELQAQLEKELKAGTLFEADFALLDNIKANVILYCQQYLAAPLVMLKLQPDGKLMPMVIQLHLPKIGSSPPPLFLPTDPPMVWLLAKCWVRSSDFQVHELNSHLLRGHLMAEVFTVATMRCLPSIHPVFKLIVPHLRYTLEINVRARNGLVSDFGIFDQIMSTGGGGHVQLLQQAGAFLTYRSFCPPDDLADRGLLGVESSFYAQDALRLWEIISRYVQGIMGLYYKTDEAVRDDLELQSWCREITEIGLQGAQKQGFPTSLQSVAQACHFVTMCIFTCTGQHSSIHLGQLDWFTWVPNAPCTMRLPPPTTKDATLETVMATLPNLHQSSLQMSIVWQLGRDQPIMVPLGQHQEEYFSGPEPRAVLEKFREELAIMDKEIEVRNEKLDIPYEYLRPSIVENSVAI
The data set can be described thus: Rabbit Reticulocyte 15-LO Assay (H15LO). The class given is biochemical. The conditions noted are these: 2 U rabbit reticulocyte 15-LO, 174 μM linoleic acid, 15 minutes at 4° C., 13-HODE quantitated. How it is done:
In the H15LO assay, a test compound was incubated with 15-LO enzyme in the presence of the linoleic acid substrate. For example, 2 units (U) of rabbit reticulocyte 15-LO and 174 μM linoleic acid were incubated with a known amount of a test compound of the present invention for 15 minutes at 4° C. The total reaction volume was 100 μL in phosphate buffer saline (PBS) containing 0.2% sodium cholate. The reaction was stopped with 100 μL of mobile phase and […] of triethyl phosphite. […] 13-HODE was quantitated by comparing peak areas of individual samples with those from a standard curve generated using authentic 13-HODE.
15-LO is obtained from phenylhydrazine-treated rabbits and purified according to the method of Rapoport (Rapoport et al., European Journal of Biochemistry, 1979;96:545-561).

The next data set has as its target T2, human 15-LO (Homo sapiens, UniProt P16050).
T2 construct: made in house; host or cells: Sf9 insect cells (baculovirus, Bac-to-Bac)
T2 sequence (P16050 1-662): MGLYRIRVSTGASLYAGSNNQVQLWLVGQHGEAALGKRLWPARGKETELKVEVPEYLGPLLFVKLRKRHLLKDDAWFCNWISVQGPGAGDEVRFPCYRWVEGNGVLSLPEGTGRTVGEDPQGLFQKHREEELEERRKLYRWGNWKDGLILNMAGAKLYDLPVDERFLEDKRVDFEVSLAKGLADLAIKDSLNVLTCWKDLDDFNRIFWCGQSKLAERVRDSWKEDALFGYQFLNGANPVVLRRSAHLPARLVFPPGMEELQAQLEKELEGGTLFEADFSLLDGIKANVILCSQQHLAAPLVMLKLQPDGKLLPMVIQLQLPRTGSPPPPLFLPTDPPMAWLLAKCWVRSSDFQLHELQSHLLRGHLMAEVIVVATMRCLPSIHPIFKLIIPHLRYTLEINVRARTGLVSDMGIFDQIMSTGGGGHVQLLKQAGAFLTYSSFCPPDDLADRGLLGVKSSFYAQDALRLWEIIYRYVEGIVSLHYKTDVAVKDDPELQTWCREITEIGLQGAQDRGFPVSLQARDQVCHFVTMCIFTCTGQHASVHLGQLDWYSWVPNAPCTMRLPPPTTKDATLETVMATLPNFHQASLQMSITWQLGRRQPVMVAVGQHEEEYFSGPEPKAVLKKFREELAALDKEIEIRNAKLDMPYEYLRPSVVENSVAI
The experiment in a line: Human Lysate 15-LO Assay (HUM15LO). The class given is biochemical. The conditions noted are these: recombinant human 15-LO, 174 μM linoleic acid, 15 minutes at 4° C., 13-HODE quantitated. How it is done:
In the HUM15LO assay, a test compound of the present invention was incubated with 15-LO enzyme in the presence of the linoleic acid substrate. For example, a known amount of a test compound of the present invention, 100 μL of human 15-LO, and 174 μM linoleic acid in PBS containing 0.2% sodium cholate were incubated for 15 minutes at 4° C. The reaction was stopped with 100 μL of mobile phase and 10 μL of triethyl phosphite. […] 13-HODE was quantitated by comparing peak areas of individual samples with those from a standard curve generated using authentic 13-HODE. The test reaction is compared to a control reaction, which is identical to the test reaction except no test compound of the present invention is present Percent inhibition is calculated as the amount of 13-HODE produced by the test reaction divided by the amount of 13-HODE produced by the control reaction, expressed as a percent.
Human 15-LO was generated in a recombinant 15-lipoxygenase bacculovirus expression system, using Gibco/BRL/Life Technologies' Bac-to-Bac expression reagents; T4 DNA ligase, Kanamycin, Gentamicin, tetracycline, penicillin, streptomycin, Bluo-gal, IPTG, DH10Bac competent cells, SOC, LB medium, Sf-900 II SFM media, Sf9 insect cells, Cell Fectin, and EcoRI, BamHI and KpnI restriction enzymes.

The record followed here is patent US6906094B2, “1,2,4-tribsubstituted benzenes as inhibitors of 15-lipoxygenase” (Warner-Lambert Company, priority 2000, dated 2005).

As a reminder, the melting point is the temperature, or range, at which the solid turns liquid. Take `COc1ccc(-c2cc3cc(F)c(F)cc3[nH]2)cc1NS(=O)(=O)NC(=O)OCCOC(C)C` (hydrate or solvate) [Example 34, Carbamic Acid, [[[5-(5,6-difluoro-IH-indol-2-yl)-2-methoxyphenyl]amino]-sulfonyl]-2(1-methylethoxy)ethyl Ester]: the melting point fell in the range of 158 to 163 °C.

In general, IC50 refers to the concentration needed to halve the response being measured. For `COc1ccc(C(=O)Nc2ccc(F)c(F)c2)cc1NS(=O)(=O)NC(=O)Nc1cc(Cl)cc(Cl)c1` [Example 17, Benzamide, 3-[[[[[(3,5-dichlorophenyl)amino]-carbonyl]amino]sulfonyl]-amino]-N-(3,4-difluorophenyl)-4-methoxy], the results for the IC50 (in data set [1]; on human 15-LO) were 0.01 µM and 0.037 µM, respectively.

Consider `CCCCOC(=O)NS(=O)(=O)Nc1cc(-c2cc3cc(F)c(F)cc3[nH]2)ccc1OC` [Example 21, Carbamic Acid, [[[5-(5,6-difluoro-IH-indol-2-yl)-2-methoxyphenyl]amino]-sulfonyl]-, Butyl Ester], for which the concentration for half-maximal inhibition (IC50) in data set [1] came out at 0.009 µM; at human 15-LO, 0.014 µM.

`COc1ccc(-c2cc3cc(F)c(F)cc3[nH]2)cc1NS(=O)(=O)NC(=O)OCC(C)C` [Example 22, Carbamic Acid, [[[5-(5,6-difluoro-IH-indol-2-yl)-2-methoxyphenyl]amino]-sulfonyl]-, 2-methylpropyl ester]: the IC50 (in data set [1]; on human 15-LO) was 0.025 µM throughout.

With `COc1ccc(-c2cc3cc(F)c(F)cc3[nH]2)cc1NS(=O)(=O)NC(=O)Nc1cc(Cl)cc(Cl)c1` [Example 24], the IC50 in data set [1] amounted to 0.011 µM; at human 15-LO it was 0.033 µM.

As to `CCOC(=O)NS(=O)(=O)Nc1cc(-c2cc3cc(F)c(F)cc3[nH]2)ccc1OC` [Example 25, Carbamic Acid, [[[5-(5,6-difluoro-1H-indol-2-yl)-2-methoxyphenyl]amino]-sulfonyl]-, ethyl ester], the results for the IC50 (in data set [1]; on human 15-LO) were 0.015 µM and 0.034 µM, respectively.

Consider `COc1ccc(-c2cc3cc(F)c(F)cc3[nH]2)cc1NS(=O)(=O)NC(=O)Nc1ccc(Cl)cc1` [Example 27, Urea, N-(4-chlor phenyl)-N′-[[[5-(5,6-difluoro-IH-indol-2-yl)-2-methoxyphenyl]amino]sulfonyl]], for which the half-maximal inhibitory concentration (IC50) in data set [1] is 0.023 µM; on human 15-LO it was 0.044 µM.

As to `COc1ccc(-c2cc3cc(F)c(F)cc3[nH]2)cc1NS(=O)(=O)NC(=O)Nc1ccc(C)cc1` [Example 28, Urea, N-[[[5-(5,6-difluoro-IH-indol-2-yl)-2-methoxyphenyl]amino]sulfonyl]-N′-(4-methylphenyl)], the concentration for half-maximal inhibition (IC50) in data set [1] is 0.039 µM; at human 15-LO, 0.018 µM.

Take `COC(=O)NS(=O)(=O)Nc1cc(-c2cc3cc(F)c(F)cc3[nH]2)ccc1OC` [Example 29, Carbamic Acid, [[[5-(5,6-difluoro-IH-indol-2-yl)-2-methoxyphenyl]amino]-sulfonyl]-methyl ester]: the concentration for half-maximal inhibition (IC50) was 0.047 µM in data set [1] and 0.085 µM on human 15-LO.

Turning to `COc1ccc(-c2cc3cc(F)c(F)cc3[nH]2)cc1NS(=O)(=O)NC(=O)OCCOC(C)C` [Example 34, Carbamic Acid, [[[5-(5,6-difluoro-IH-indol-2-yl)-2-methoxyphenyl]amino]-sulfonyl]-2(1-methylethoxy)ethyl Ester], the IC50 worked out at 0.026 µM in data set [1] and 0.03 µM at human 15-LO.

As for `CNS(=O)(=O)Nc1cc(-c2cc3cc(F)c(F)cc3[nH]2)ccc1OC` [Example 37, Sulfamide, N-[5-(5,6-diflouo-IH-indo-2-yl)-2-methoxyphenyl]-N′-methyl], the results for the IC50 (in data set [1]; at human 15-LO) were 0.005 µM and 0.007 µM, respectively.

Consider `CNS(=O)(=O)Nc1cc(C(=O)Nc2ccc(F)c(F)c2)ccc1OC` [Example 38, Benzamide, N-(3,4-difluorophenyl)-4-methoxy-3-[[(methylamino)-sulfonyl]amino]], for which the IC50 (in data set [1]; at human 15-LO) was 0.013 µM each time.

Regarding `COc1ccc(-c2cc3cc(F)c(F)cc3[nH]2)cc1NS(=O)(=O)NC(=O)OCCc1ccccc1` [Example 40, Carbamic Acid, [[[5-(5,6-difluoro-IH-indol-2-yl)-2-methoxyphenyl]amino]-sulfonyl]-2-phenylethyl ester], the concentration for half-maximal inhibition (IC50) is 0.007 µM in data set [1] and 0.015 µM on human 15-LO.

Turning to `COc1ccc(C(=O)Nc2ccc(F)c(F)c2)cc1NS(=O)(=O)NC(=O)OCCc1ccccc1` [Example 41], the results for the IC50 (in data set [1]; on human 15-LO) were 0.013 µM and 0.069 µM, respectively.

With `COC(=O)COC(=O)NS(=O)(=O)Nc1cc(-c2cc3cc(F)c(F)cc3[nH]2)ccc1OC` [Example 43, Acetic Acid, [[[[[[5-(5,6-difluoro-1H-indol-2-yl)-2-methoxyphenyl]amino]-sulfonyl]amino]carbonyl]oxy]-, Methyl ester], the IC50 amounted to 0.017 µM in data set [1] and 0.03 µM at human 15-LO.

Consider `COc1ccc(-c2cc3cc(F)c(F)cc3[nH]2)cc1NS(=O)(=O)NC(=O)OCCCO` [Example 45, Carbamic acid, [[[5-(5,6-difluoro-IH-indol-2-yl)-2-methoxyphenyl]amino]-sulfonyl]-3-hydroxypropyl ester], for which the IC50 was 0.08 µM in data set [1] and 0.133 µM at human 15-LO.

Regarding `COc1ccc(C(=O)Nc2ccc(F)c(F)c2)cc1NS(=O)(=O)NC(=O)Nc1ccc(C(C)(C)C)cc1` [Example 59, Benzamide, N-(3,4-difluorophenyl)-3-[[[[[[4-(1,1-dimethylethyl)phenyl]-amino]carbonyl]amino]sulfonyl]amino]-4-methoxy], the results for the IC50 (in data set [1]; on human 15-LO) were 0.013 µM and 0.024 µM, respectively.

Regarding `COc1ccc(C(=O)Nc2ccc(F)c(F)c2)cc1NS(=O)(=O)NC(=O)Nc1ccc(C(=O)O)cc1` [Example 65, Benzoic Acid, 4-[[[[[[5-[[(3,4-difluorophenyl)amino]carbonyl]-2-methoxyphenyl]amino]sulfonyl]amino]carbonyl]amino]], the IC50 worked out at 0.03 µM in data set [1] and 0.273 µM on human 15-LO.

As to `COc1ccc(NC(=O)NS(=O)(=O)Nc2cc(C(=O)Nc3ccc(F)c(F)c3)ccc2OC)cc1` [Example 66, Benzamide, N-(3,4-difluorophenyl)-4-methoxy-3-[[[[[(4-methoxyphenyl)-amino]carbonyl]amino]sulfonyl]amino]], the figures for the 50% inhibitory concentration (IC50) (in data set [1]; on human 15-LO) were 0.051 µM and 0.225 µM, respectively.
